Reference: patent publication US20040138137A1, “Alloferons - immunomodulatory peptides” (Entopharm Co., Ltd., priority 1999, published 2004)
Read-outs that look alike come from different tables or passages of the source. Marks after values point to notes of the source that are not given here. Ends that are not written are not given here.

Columns and labels:
[1] = test system: peripheral blood lymphocytes (PBL) in healthy donors; A431 cell line; conditions: 17 healthy donors
Experimental: (§1) H3-uridine labeled K562 human leukemia cells were used as targets for a cytotoxic lymphocytes' attack. […] Then the proportion of killed and normal target cells and the corresponding cytotoxicity indices were determined in control and experimental groups.
(§2) The lymphocytes were diluted up to 2×10^6 cells/ml and immediately used for the cytotoxicity analysis.
(§3) Two kinds of target cells were used in the study simultaneously: the K562 cell line originated from erythromyeloid leukemia cells and the A431 cell line originated from the solid colorectal tumor. The proportion of lymphocytes and target cells (E/T ratio) in the trial was 20:1.

[2] = test system: peripheral blood lymphocytes (PBL) in cancer patients; K562; conditions: 18 cancer patients; for Positive responses proportion, K562 or A531: either target
Experimental: as §1, §2, §3

[3] = test system: peripheral blood lymphocytes (PBL) in healthy donors; K562 cell line; test: PBL cytotoxicity in healthy donors, K562 targets; conditions: for Cytotoxicity index, M ± m, %: healthy donor 16, K562, 5 ng/ml, lymphocyte:target 20:1, control −3.5 ± 7.4; for Donors responding by statistically approved increase of cytotoxic activity against K562 or A431: out of 17 healthy donors
Experimental: as §1, §2, §3

[4] = test system: peripheral blood lymphocytes (PBL) in cancer patients; A431; test: PBL cytotoxicity in cancer patients, A431 targets; conditions: for Cytotoxicity index, %: A431, lymphocyte:target 20:1
Experimental: as §1, §2, §3

[5] = test system: human peripheral blood lymphocytes; K562 cancer cells; test: Cytotoxic activity of human peripheral blood lymphocytes against K562 cancer cells
Experimental: as §1, §2

Acute toxicity in mice = type: in vivo; conditions: 500-6000 mg/kg in mice
Acute toxicity in rats = type: in vivo
[6] = Subacute and chronic toxicity in rats; type: in vivo; conditions: 0.2, 2 and 20 mg/kg once a day during 90 days
mouse germ cells = test: Dominant lethal mutations in the mouse germ cells; type: in vivo; conditions: 15 mg/kg
Salmonella tiphimurium = test: Ames test; type: cell-based; conditions: 0.1-1000 microgram/Petri dish; 3 test line
E. coli test-line PQ37 = test: DNA SOS-reparation; type: cell-based
[7] = Toxicity evaluation, panel of in vitro and in vivo models (overall statement); conditions: in vivo and in vitro studies
Experimental: The toxicity of alloferon was tested using a panel of in vitro and in vivo models.

[8] = test system: mouse spleen lymphocytes; K562 human leukemia cells
Experimental: as §1

[9] = therapeutic and 10-fold administration
fat cells = conditions: therapeutic and 10-fold administration
[10] = therapeutic and 10-fold administration; remark: listed apart in the source
[11] = therapeutic and 10-fold administration; remark: listed apart in the source
[12] = subcutaneous injection 1.5 and 15 mg/kg into pregnant rats
mouse bone marrow cells = conditions: single dose 0.5 and 15 mg/kg and fivefold dose 0.5 mg/kg
[13] = test system: human peripheral blood lymphocytes; A431 tumor cells; test: Cytotoxic activity of human PBL against A431 tumor cells, alloferon 1 analogs; conditions: 5 ng/ml; A431 targets; control −6.0 ± 8.1
Experimental: The mononuclear fraction isolated from the blood of healthy donors and target cell of the A431 cell line were co-incubated in the presence of one of the preparations: alloferon 1, alloferon 3, alloferon 4 or interferon-alpha 2b (positive control). The preparation's concentration in all cases was 5 ng/ml. Cytotoxicity index excess over the untreated control was used as the efficacy criterion.

[14] = test system: human influenza virus A strain A/Aichi/2/68 (cerotype H3N2); type: in vivo, mice
[15] = 17 healthy donors, K562 or A431
[16] = patient 11, Uterus cancer, control 93.3 ± 1.0
[17] = patient 14, Non-Hodgkin lymphoma, control −40.0 ± 20.5

Interferon-alpha 2b
Positive responses proportion, A431 [1]: 4/17 = 24% | Positive responses coincidence: Donors selectively sensitive to the preparation ([2]; K562 or A431): 4/18 = 22% | Positive responses coincidence: Interferon and alloferon sensitive donors ([2]; K562 or A431): 7/18 = 38% | Positive responses proportion, K562 or A531 ([2]; listed as Interferon): 10/18 = 56% | Positive responses proportion, K562 or A531 ([2]; listed as interferon): 56% | Positive responses proportion, K562 ([2]; positive response = statistically significant increase of lymphocyte cytotoxicity index): 6/18 = 33% | Positive responses coincidence: Donors selectively sensitive to the preparation [3, 15]: 1/17 = 6% | Positive responses coincidence: Interferon and alloferon sensitive donors [3, 15]: 9/17 = 53% | Positive responses proportion, K562 or A531 ([3]; 17 healthy donors, either target): 10/17 = 59% | Positive responses proportion, K562 ([3]; 17 healthy donors, positive response = statistically significant increase of lymphocyte cytotoxicity index): 7/17 = 41% | Cytotoxicity index, M ± m, % [3]: 5.0 ± 4.7% | Donors responding by statistically approved increase of cytotoxic activity against K562 or A431 [3]: 10 donors | Positive responses proportion, A431 ([4]; 18 cancer patients): 8/18 = 44% | Cytotoxicity index, % [4, 16]: 93.5 ± 0.9% | Cytotoxicity index, % [4, 17]: 26.0 ± 8.9 % | Efficacy compared to alloferon at 0.05-0.5 ng/ml ([5]; 5 ng/ml): less effective

HGVSGHGQHGVHG [Alloferon 1]
Acute toxicity, animal growth, feeding, macroscopical structure of organs, injection place (Acute toxicity in mice): highest dose. No changes in animal growth, feeding, | Acute toxicity, mortality (Acute toxicity in mice; single subcutaneous and intragastric administration): Mortality was not registered in any dose including | Acute toxicity, animal growth, feeding, macroscopical structure of organs, injection place (Acute toxicity in rats; 300-5000 mg/kg in rats): highest dose. No changes in animal growth, feeding, | Toxic/therapeutic dose ratio (Acute toxicity in rats; rats): ratio >35700 times | Acute toxicity, mortality (Acute toxicity in rats; single subcutaneous and intragastric administration, 300-5000 mg/kg in rats): Mortality was not registered in any dose including | Subacute and chronic toxicity, mortality [6]: None animal died during 90 day period. | Subacute and chronic toxicity, physiological, hematological, biochemical, pathomorphological and histological data [6]: testicles, ovary) data did not show negative changes | Dominant lethal mutations in the mouse germ cells (mouse germ cells): Alloferon in the dose 15 mg/kg did not induce | Ames test, gene mutations (Salmonella tiphimurium): microgram/Petri dish did not induce gene mutations | DNA SOS-reparation, DNA-damaging activity (E. coli test-line PQ37): Alloferon has no DNA-damaging activity in the E. coli | Overall toxicity (words) ([7]; listed as Alloferon): practically nontoxic | Overall toxicity (words) ([7]; listed as alloferon): No signs of acute or chronic toxicity | Overall toxicity (words) ([7]; listed as alloferon 1): Neither an acute nor a chronic toxicity | Effective in vitro concentration, stimulation of mouse spleen lymphocytes' cytotoxic activity [8]: 0.05 to 50 ng/mL | Anaphylactic shock (10-fold therapeutic dose, registered in 1 male, 12 guinea pigs): dosage. Minimal response (short term unrest, nose | Anaphylactic shock (therapeutic dosage, guinea pigs): No signs of anaphylaxy were found at therapeutic | Immune complexes reaction [9]: The reaction was not found under alloferon | Indirect reaction of fat cells degranulation (fat cells): Fat cells degranulation rate was not changed under | Conjunctive probe [10]: The reaction was not found under alloferon | Reaction of delayed hypersensitivity [11]: The reaction was not found under alloferon | Embriotoxicity and influence on the reproductive function [12]: Alloferon administration did not cause negative | Chromosome aberrations in the mouse bone marrow cells (mouse bone marrow cells): fivefold dose 0.5 mg/kg did not induce chromosome | Cytotoxicity index, M ± m, % [3]: 18.5 ± 1.7 % | Donors responding by statistically approved increase of cytotoxic activity against K562 or A431 [3]: 10 donors | Effective in vitro concentration, stimulation of peripheral blood lymphocytes' cytotoxic activity in cancer patients ([4]; cancer patients): 5 ng/mL | Cytotoxicity index, % [4, 16]: 94.3 ± 0.4% | Cytotoxicity index, % [4, 17]: 15.3 ± 4.8 % | Concentration from which PBLs' cytotoxicity against K562 was significantly increased [5]: ≥ 0.0005 nanogram/ml | Effective in vitro concentration, stimulation of human peripheral blood lymphocytes' cytotoxic activity [5]: 0.0005 to 500 ng/mL

VSGHGQHGVH [Alloferon 3]
Average cytotoxicity index, M ± m, % [13]: 60.2 ± 2.7%

CC(N)C12CC3CC(CC(C3)C1)C2 (stereo not drawn) [Remantadin]
Mortality 10 days after virus inoculation, % ([14]; 1000 microgram per mouse per os, control 65): 5*** % | Protection from lethal pulmonary lesions caused by the influenza virus ([14]; mouse, in vivo, sc): effectively protected
